Test results from article PMC9133036 (Nature Communications, 2022).
Values joined by “and” are separate entries in the source; they are usually repeats but may differ in a detail not shown here. Identical values can stand only once.

What was measured:
Format in all cases: cell-based
OX2R T111A = molecular target: T1, OX2R T111A (Homo sapiens, UniProt O43614, T111A); experiment: IP accumulation assay, OX2R T111A; details: for % IP accumulation: listed as OXB
T1 construct: FLAG; expressed in transfected cells; host or cells: HEK293
T1 sequence (O43614 1-444 T111A): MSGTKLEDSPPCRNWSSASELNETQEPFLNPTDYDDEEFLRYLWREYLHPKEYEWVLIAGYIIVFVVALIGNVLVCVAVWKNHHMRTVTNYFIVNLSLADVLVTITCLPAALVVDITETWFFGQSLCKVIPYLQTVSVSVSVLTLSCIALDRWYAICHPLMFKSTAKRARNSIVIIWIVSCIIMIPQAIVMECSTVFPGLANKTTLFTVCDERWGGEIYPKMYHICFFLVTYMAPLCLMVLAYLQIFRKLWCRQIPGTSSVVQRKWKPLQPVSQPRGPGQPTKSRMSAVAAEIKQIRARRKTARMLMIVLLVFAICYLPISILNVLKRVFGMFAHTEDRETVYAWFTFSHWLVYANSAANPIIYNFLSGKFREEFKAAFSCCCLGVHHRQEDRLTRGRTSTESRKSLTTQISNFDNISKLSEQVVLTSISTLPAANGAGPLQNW
Description: (§1) The IP assay was adapted from a prior precedent. HEK293 cells were maintained in DMEM-high glucose (Millipore Sigma) supplemented with 5% fetal bovine serum (Corning) and penicillin-streptomycin (Millipore Sigma). Receptor constructs used were the full-length wild-type (or mutant) human OX1R and OX2R sequences cloned into pCDNA3. To enhance the Emax in the IP assay, a plasmid encoding full-length human Gαq subunit[66] was co-transfected into HEK293 cells with plasmids encoding orexin receptor constructs using Lipofectamine 3000 (Thermo Fisher). 24 h after transfection, the cells were plated on poly-D-lysine coated (Millipore Sigma) tissue culture-treated 96 well white plates with clear bottoms (Perkin Elmer) at 30,000 cells per well in Inositol-free DMEM (MP Biomedicals) supplemented with 5% fetal bovine serum, 4 mM L-glutamine (Millipore Sigma), penicillin-streptomycin, and about 5 uCi (5 ul) per ml myo-[2-3H] inositol (Perkin Elmer). The following day, the media was replaced with agonists that were diluted in HBSS (Millipore Sigma) containing 10 mM lithium chloride (Millipore Sigma) and incubated at 37 °C for 45 min. Then agonists were removed and cells were lysed on ice for 30 min with 10 mM formic acid (Millipore Sigma). 1.25 mg of poly-lysine coated YSI SPA beads (Perkin Elmer) was added to each well. The plates were mixed on an orbital shaker for 30 min. The plates were read on a MicroBeta scintillation counter (Perkin Elmer) the following day. IP accumulation assays on different constructs were performed in n ≥ 3 independent experiments (each done in duplicate), where n is shown in Supplementary Table 2.

OX1R A127T = molecular target: T2, OX1R A127T (Homo sapiens, UniProt O43613, A127T); experiment: IP accumulation assay, OX1R A127T
T2 construct: FLAG; expressed in transfected cells; host or cells: HEK293
T2 sequence (O43613 1-425 A127T): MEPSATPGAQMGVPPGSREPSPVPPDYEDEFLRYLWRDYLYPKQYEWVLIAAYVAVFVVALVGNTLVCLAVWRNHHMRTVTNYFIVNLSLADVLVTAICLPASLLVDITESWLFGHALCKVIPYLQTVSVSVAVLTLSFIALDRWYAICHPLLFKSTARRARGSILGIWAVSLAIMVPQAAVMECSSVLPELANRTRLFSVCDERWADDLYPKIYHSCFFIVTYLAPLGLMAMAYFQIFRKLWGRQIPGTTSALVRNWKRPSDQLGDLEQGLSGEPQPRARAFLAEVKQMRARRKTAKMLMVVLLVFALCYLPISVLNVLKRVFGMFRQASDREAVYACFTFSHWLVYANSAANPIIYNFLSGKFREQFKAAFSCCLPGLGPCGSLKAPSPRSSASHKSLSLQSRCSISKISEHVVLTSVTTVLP
Description: as §1

OX2R Y232A = molecular target: T3, OX2R Y232A (Homo sapiens, UniProt O43614, Y232A); experiment: β-arrestin PathHunter assay, OX2R Y232A; details: β-arrestin recruitment
T3 construct: expressed in transfected cells; host or cells: CHO-K1 stably expressing EA β-arrestin2
T3 sequence (O43614 whole entry Y232A): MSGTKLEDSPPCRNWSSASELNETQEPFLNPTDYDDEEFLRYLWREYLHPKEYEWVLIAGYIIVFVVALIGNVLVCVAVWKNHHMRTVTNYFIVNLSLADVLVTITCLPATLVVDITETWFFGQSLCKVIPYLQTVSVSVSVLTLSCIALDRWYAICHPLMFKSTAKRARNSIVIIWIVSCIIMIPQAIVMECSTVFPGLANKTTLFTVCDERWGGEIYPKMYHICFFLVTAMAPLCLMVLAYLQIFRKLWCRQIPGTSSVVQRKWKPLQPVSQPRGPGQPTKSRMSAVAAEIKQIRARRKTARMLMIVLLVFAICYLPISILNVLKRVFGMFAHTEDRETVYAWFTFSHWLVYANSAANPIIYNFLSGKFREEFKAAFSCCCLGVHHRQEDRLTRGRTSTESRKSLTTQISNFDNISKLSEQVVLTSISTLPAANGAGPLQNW
Protocol: (§2) β-Arrestin recruitment activity was measured by using the PathHunter system (DiscoveRX) according to the manufacturer’s instruction. Receptor constructs used were the full-length wild-type (or mutant) human OX2R sequences cloned into pCMV-ProLink (DiscoveRX). CHO-K1 cells stably expressing EA β-arrestin2 (DiscoveRX) were plated on 384 well white plates (Thermo Fisher) at 4000 cells/well in HamF12 (Wako Pure Chemical Industries) supplemented with 10% fetal bovine serum (Corning) and penicillin-streptomycin (Wako Pure Chemical Industries) and incubated overnight at 37 °C under 5% CO2. Cells were transfected with plasmids encoding wild type or each mutant ProLink-tagged human OX2R using FuGENE HD (Promega). […] Detection reagent was added and incubated for 1 h at room temperature. Luminescent signal was detected using an EnVision plate reader (PerkinElmer). β-arrestin assays on different constructs were performed in two or three independent experiments (each done in quadruplicate). Dose response curves (shown in Supplementary Fig. 8) were fitted to the three-parameter model ‘log(agonist) vs response’ in GraphPad Prism to determine pEC50 values.

OX2R F346A = molecular target: T4, OX2R F346A (Homo sapiens, UniProt O43614, F346A); experiment: β-arrestin PathHunter assay, OX2R F346A; details: β-arrestin recruitment
T4 construct: expressed in transfected cells; host or cells: CHO-K1 stably expressing EA β-arrestin2
T4 sequence (O43614 whole entry F346A): as the sequence (O43614 whole entry Y232A) above, with A232Y, F346A counted along it
Protocol: as §2

OX2R H350A = molecular target: T5, OX2R H350A (Homo sapiens, UniProt O43614, H350A); experiment: β-arrestin PathHunter assay, OX2R H350A; details: β-arrestin recruitment
T5 construct: expressed in transfected cells; host or cells: CHO-K1 stably expressing EA β-arrestin2
T5 sequence (O43614 whole entry H350A): as the sequence (O43614 whole entry Y232A) above, with A232Y, H350A counted along it
Protocol: as §2

OX2R Y354A = molecular target: T6, OX2R Y354A (Homo sapiens, UniProt O43614, Y354A); experiment: β-arrestin PathHunter assay, OX2R Y354A; details: for beta-arrestin recruitment fold change: Y354A, listed as OxB
T6 construct: expressed in transfected cells; host or cells: CHO-K1 cells stably expressing EA β-arrestin2 (DiscoveRX), transiently transfected with pCMV-ProLink OX2R
T6 sequence (O43614 whole entry Y354A): as the sequence (O43614 whole entry Y232A) above, with A232Y, Y354A counted along it
T6 sequence (P32121 whole entry partner): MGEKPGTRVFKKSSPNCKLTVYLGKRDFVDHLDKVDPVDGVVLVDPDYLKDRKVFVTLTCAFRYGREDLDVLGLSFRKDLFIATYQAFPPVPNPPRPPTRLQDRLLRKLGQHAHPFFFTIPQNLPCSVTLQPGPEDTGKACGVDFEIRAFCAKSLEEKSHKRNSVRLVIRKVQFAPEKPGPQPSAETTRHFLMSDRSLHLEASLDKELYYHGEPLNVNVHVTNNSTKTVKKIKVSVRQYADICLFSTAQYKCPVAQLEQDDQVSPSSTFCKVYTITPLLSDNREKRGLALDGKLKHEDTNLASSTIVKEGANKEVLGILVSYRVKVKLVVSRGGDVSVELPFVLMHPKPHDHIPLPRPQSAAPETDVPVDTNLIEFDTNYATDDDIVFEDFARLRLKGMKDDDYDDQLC
Protocol: as §2

For `COC(=O)N1CCC[C@H](NS(C)(=O)=O)[C@@H]1CO[C@H]1CC[C@@H](c2ccccc2)CC1` [TAK-925, methyl (2R,3S)−3-[(methylsulfonyl)amino]−2-{[(cis−4-phenylcyclohexyl)oxy]methyl}piperidine-1-carboxylate], the EC50 (OX2R T111A; IP accumulation) was 2.1 µM, the Emax (OX2R T111A; relative to OX2R WT/TAK-925) was 53 and the activation at 100 µM (OX1R A127T; 0.75 h, TAK-925 conc (log, M) -4.00) was 109%. It also gave an activation at 33.1 µM (OX1R A127T; 0.75 h, TAK-925 conc (log, M) -4.48) of 92.5%, an activation at 11.2 µM (OX1R A127T; 0.75 h, TAK-925 conc (log, M) -4.95) of 78.5% and an activation at 3.72 µM (OX1R A127T; 0.75 h, TAK-925 conc (log, M) -5.43) of 56%. For the same compound, the activation at 1.23 µM (OX1R A127T; 0.75 h, TAK-925 conc (log, M) -5.91) was 27.7%, the activation at 0.407 µM (OX1R A127T; 0.75 h, TAK-925 conc (log, M) -6.39) was 18.7% and the activation at 0.0457 µM (OX1R A127T; 0.75 h, TAK-925 conc (log, M) -7.34) was 12%. For the same compound, the activation at 0.0151 µM (OX1R A127T; 0.75 h, TAK-925 conc (log, M) -7.82) was 13.1%, the activation at 0.0017 µM (OX1R A127T; 0.75 h, TAK-925 conc (log, M) -8.77) was 0% and the EC50 (OX1R A127T; IP accumulation) was 4.7 µM. The “% IP accumulation” value (OX1R A127T; TAK-925 conc (log, M) -8.77) was 0.00%, the Emax (OX1R A127T; relative to OX1R S103T/A127T/TAK-925) was 100 and the EC50 (OX2R Y232A) was 8.5 µM. For the same compound, the EC50 (OX2R F346A) was 0.35 µM, the EC50 (OX2R H350A) was 4.8 µM and the EC50 (OX2R Y354A; β-arrestin recruitment) was 2.4 µM.
For orexin B, the “% IP accumulation” value (OX2R T111A; OXB conc (log, M) -6.95) was 23.30% and 22.94% and 22.04%, the “% IP accumulation” value (OX2R T111A; OXB conc (log, M) -7.43) was 18.33% and 16.23% and 14.57% and the “% IP accumulation” value (OX2R T111A; OXB conc (log, M) -7.91) was 15.27% and 13.44% and 11.80%. The “beta-arrestin recruitment fold change” value (OX2R Y354A; OxB concentration -6.00 (log, M)) was 9.833 fold and 7.839 fold and 7.764 fold and 5.538 fold, the “beta-arrestin recruitment fold change” value (OX2R Y354A; OxB concentration -6.52 (log, M)) was 8.222 fold and 8.331 fold and 7.995 fold and 7.023 fold and the “beta-arrestin recruitment fold change” value (OX2R Y354A; OxB concentration -7.00 (log, M)) was 7.061 fold and 6.164 fold and 4.831 fold and 5.998 fold. The “beta-arrestin recruitment fold change” value (OX2R Y354A; OxB concentration -7.52 (log, M)) was 3.021 fold and 4.546 fold and 4.264 fold and 4.947 fold, the “beta-arrestin recruitment fold change” value (OX2R Y354A; OxB concentration -8.00 (log, M)) was 1.570 fold and 2.249 fold and 1.723 fold and 2.390 fold and the “beta-arrestin recruitment fold change” value (OX2R Y354A; OxB concentration -8.52 (log, M)) was 0.925 fold and 1.624 fold and 1.133 fold and 1.227 fold. For the same compound, the “beta-arrestin recruitment fold change” value (OX2R Y354A; OxB concentration -9.00 (log, M)) was 0.997 fold and 0.922 fold and 1.331 fold and 1.082 fold and the “beta-arrestin recruitment fold change” value (OX2R Y354A; OxB concentration -10.00 (log, M)) was 1.135 fold and 1.096 fold and 1.298 fold and 1.060 fold.
